# Test results taken from ChEMBL document CHEMBL4130423, “Synthesis, in vitro β-glucuronidase inhibitory potential and molecular docking studies of quinolines” (Eur J Med Chem, 2017).
# Molecular target: T1, Beta-glucuronidase (Bos taurus, UniProt A3KMY8)
# T1 sequence (A3KMY8 whole entry): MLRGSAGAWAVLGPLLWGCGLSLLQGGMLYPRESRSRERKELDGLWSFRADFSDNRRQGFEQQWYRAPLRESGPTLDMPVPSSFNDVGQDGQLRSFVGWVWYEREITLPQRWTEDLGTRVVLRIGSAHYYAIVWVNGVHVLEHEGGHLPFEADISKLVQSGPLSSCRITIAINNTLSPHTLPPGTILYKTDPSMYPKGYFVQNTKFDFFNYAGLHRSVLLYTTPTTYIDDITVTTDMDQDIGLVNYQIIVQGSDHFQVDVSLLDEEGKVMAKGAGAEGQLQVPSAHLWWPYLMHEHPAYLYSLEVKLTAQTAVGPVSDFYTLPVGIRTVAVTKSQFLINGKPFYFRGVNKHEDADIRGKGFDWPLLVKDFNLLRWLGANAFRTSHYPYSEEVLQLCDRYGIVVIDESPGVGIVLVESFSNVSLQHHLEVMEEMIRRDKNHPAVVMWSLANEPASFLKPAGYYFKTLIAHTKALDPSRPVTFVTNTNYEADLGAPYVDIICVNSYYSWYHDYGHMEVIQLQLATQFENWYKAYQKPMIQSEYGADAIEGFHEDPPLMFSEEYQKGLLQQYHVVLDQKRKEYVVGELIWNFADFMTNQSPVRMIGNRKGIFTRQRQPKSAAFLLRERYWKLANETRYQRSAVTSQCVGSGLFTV
# Assay: Inhibition of bovine liver beta-glucuronidase using p-nitrophenyl-beta-D-glucuronide as substrate preincubated for 30 mins followed by substrate addition by spectrophotometric analysis
row,IC50 [µM],Structure (SMILES)
1,33.5 to 53.6,COc1ccc(S(=O)(=O)Nc2cnc3ccccc3c2)cc1OC
2,8.4,O=S(=O)(Nc1cnc2ccccc2c1)c1ccc(Cl)cc1Cl
3,66.4,O=S(=O)(Nc1cccc2cccnc12)c1ccccc1
4,23.5,Cc1cc(S(=O)(=O)Nc2cccc3ncccc23)c(C)cc1Cl
5,42.6,COc1ccc(S(=O)(=O)Nc2cccc3cccnc23)cc1OC
6,46.2,O=[N+]([O-])c1cccc(S(=O)(=O)Nc2cnc3ccccc3c2)c1
7,30.1,O=[N+]([O-])c1cccc(S(=O)(=O)Oc2cccc3cccnc23)c1
8,6.1,O=S(=O)(Nc1cccc2cccnc12)c1ccc(Cl)cc1Cl
9,27.2,CCCc1ccc(S(=O)(=O)Nc2cnc3ccccc3c2)cc1
10,4.5,O=S(=O)(Nc1cccc2ncccc12)c1cc(Cl)ccc1Cl
11,15.4,O=[N+]([O-])c1ccc(S(=O)(=O)Oc2cccc3cccnc23)cc1
12,2.1,O=S(=O)(Nc1cccc2ncccc12)c1ccc(Cl)cc1Cl
13,6.4,O=[N+]([O-])c1ccccc1S(=O)(=O)Oc1cccc2cccnc12
14,75.1,CCCc1ccc(S(=O)(=O)Nc2cccc3ncccc23)cc1
15,31.6,O=[N+]([O-])c1ccc(S(=O)(=O)Nc2cnc3ccccc3c2)cc1
16,16.1,O=[N+]([O-])c1cccc(S(=O)(=O)Nc2cccc3cccnc23)c1
17,48.6,CS(=O)(=O)Nc1cccc2cccnc12
18,66.5,COc1ccc(Br)cc1S(=O)(=O)Nc1cnc2ccccc2c1
19,84.4,CCCc1ccc(S(=O)(=O)Oc2cccc3cccnc23)cc1
20,5.5,O=S(=O)(Nc1cnc2ccccc2c1)c1cc(Cl)ccc1Cl

row,IC50 [µM],Structure (SMILES)
1,24.5,Cc1cc(S(=O)(=O)Nc2cccc3cccnc23)c(C)cc1Cl
2,34.4,Cc1cc(S(=O)(=O)Nc2cnc3ccccc3c2)c(C)cc1Cl
3,53.4,O=S(=O)(Nc1cnc2ccccc2c1)c1ccccc1
4,31.3,O=[N+]([O-])c1ccc(S(=O)(=O)Nc2cccc3cccnc23)cc1
5,49.5,COc1ccc(Br)cc1S(=O)(=O)Oc1cccc2cccnc12
6,8.1,O=[N+]([O-])c1ccccc1S(=O)(=O)Nc1cnc2ccccc2c1
7,2.8,COc1ccc(-c2nc3ccccc3c(=O)[nH]2)cc1O
8,49.5,O=S(=O)(Oc1cccc2cccnc12)c1ccccc1
9,49.2,COc1ccc(S(=O)(=O)Nc2cccc3cccnc23)cc1
10,1.6,O=S(=O)(Nc1cccc2ncccc12)c1cc(Cl)cc(Cl)c1O
11,70.5,CCCc1ccc(S(=O)(=O)Nc2cccc3cccnc23)cc1
12,18.2,O=[N+]([O-])c1ccccc1S(=O)(=O)Nc1cccc2cccnc12
13,75.1,CCCCCCCCS(=O)(=O)Nc1cnc2ccccc2c1
14,68.5,COc1ccc(Br)cc1S(=O)(=O)Nc1cccc2cccnc12
15,9.7,O=S(=O)(Oc1cccc2cccnc12)c1ccc(Cl)cc1Cl
16,33.4,O=S(=O)(Nc1cccc2cccnc12)c1ccc(Cl)cc1
17,12.2,O=[N+]([O-])c1cccc(S(=O)(=O)Nc2cccc3ncccc23)c1
18,43.2,COc1ccc(S(=O)(=O)Nc2cccc3ncccc23)cc1OC
19,50.2,COc1ccc(Br)cc1S(=O)(=O)Nc1cccc2ncccc12
20,41.6,Cc1cc(S(=O)(=O)Oc2cccc3cccnc23)c(C)cc1Cl

row,Structure (SMILES),IC50 [µM]
1,COc1ccc(-c2nc3ccccc3c(=O)[nH]2)cc1,1.1

# Molecular target: T2, Beta-glucuronidase (Bos taurus) (UniProt A3KMY8)
# T2 sequence (whole entry): T1 sequence (A3KMY8 whole entry)
# Assay: Potency index, ratio of saccharic acid 1,4-lactone IC50 to test compound IC50 for bovine liver beta-glucuronidase
row,Ratio IC50,Structure (SMILES)
1,6,O=S(=O)(Nc1cnc2ccccc2c1)c1ccc(Cl)cc1Cl
2,8,O=S(=O)(Nc1cccc2cccnc12)c1ccc(Cl)cc1Cl
3,24,O=S(=O)(Nc1cccc2ncccc12)c1ccc(Cl)cc1Cl
4,3,O=[N+]([O-])c1cccc(S(=O)(=O)Nc2cccc3cccnc23)c1
5,30,O=S(=O)(Nc1cccc2ncccc12)c1cc(Cl)cc(Cl)c1O
6,3,O=[N+]([O-])c1ccccc1S(=O)(=O)Nc1cccc2cccnc12
